# Like-named read-outs stand apart in the source and are kept apart here. Non-standard residues stand in square brackets, D forms with d. Residues, ends and D or L forms follow the SMILES beside them. 1Nal = N[C@@H](Cc1cccc2ccccc12)C(=O)O; β3hI = CC[C@H](C)[C@H](N)CC(=O)O; hSer = N[C@@H](CCO)C(=O)O; Nle = CCCC[C@H](N)C(=O)O; Aib = CC(C)(N)C(=O)O; βAla = NCCC(=O)O
# How the values were obtained:
# human PTH-2 receptor = molecular target: T1, human PTH-2 receptor (Homo sapiens, UniProt P49190); experiment: Luciferase-based transcriptional reporter gene assay for selectivity; assay type: cell-based
# T1 construct: expressed in transfected cells
# T1 sequence (P49190 25-550): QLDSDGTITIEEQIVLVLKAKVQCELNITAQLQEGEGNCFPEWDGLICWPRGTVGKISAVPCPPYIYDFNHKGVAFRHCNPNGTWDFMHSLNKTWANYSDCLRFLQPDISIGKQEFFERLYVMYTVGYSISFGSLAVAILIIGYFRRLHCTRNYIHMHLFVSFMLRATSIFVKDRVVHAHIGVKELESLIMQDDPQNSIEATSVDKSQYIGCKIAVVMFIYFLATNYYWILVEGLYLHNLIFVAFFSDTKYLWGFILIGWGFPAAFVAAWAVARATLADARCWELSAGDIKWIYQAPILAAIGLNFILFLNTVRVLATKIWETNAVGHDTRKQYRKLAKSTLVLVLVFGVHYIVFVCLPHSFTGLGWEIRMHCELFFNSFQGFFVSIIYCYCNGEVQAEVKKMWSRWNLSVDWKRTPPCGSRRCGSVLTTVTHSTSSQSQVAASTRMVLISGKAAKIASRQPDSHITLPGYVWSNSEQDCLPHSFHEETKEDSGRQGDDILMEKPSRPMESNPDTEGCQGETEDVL
# Protocol: Agonist activity of compounds on the human PTH-1 receptor was determined in a reporter gene assay by transiently transfecting HEK-293 cells with plasmids encoding human PTH-1 receptor under control of the SV40 promoter and a luciferase reporter gene under control of cAMP responsive elements (CRE). See Himmler et al, J. Recept. Res. 13 (1993) 79-94, for further guidance on this assay. Transfected cells were exposed to serial dilutions of compounds for 4-5 hours followed by lysis of cells, determination of luciferase activity, and determination of compound efficacies and EC50 values through non-linear regression.
# PTH (1-34) was used as an internal control in each experiment and compounds were tested in at least three independent experiments. To determine selectivity, compounds were tested in luciferase-based transcriptional reporter gene assays expressing the human PTH-2 receptor.
# human PTH-1 receptor = molecular target: T2, human PTH-1 receptor (Homo sapiens, UniProt Q03431); experiment: Reporter gene assay (CRE-luciferase) for agonist activity in transiently transfected HEK-293 cells; assay type: cell-based; settings: for Selectivity hPTHR-2/hPTHR-1 / hPTHR-2/hPTHR-1: ratio of EC50 values; for hPTHR-2/hPTHR-1: Table 3, selectivity for hPTH-1 receptor over hPTH-2 receptor
# T2 construct: expressed in transfected cells; host or cells: HEK-293
# T2 sequence (Q03431 27-593): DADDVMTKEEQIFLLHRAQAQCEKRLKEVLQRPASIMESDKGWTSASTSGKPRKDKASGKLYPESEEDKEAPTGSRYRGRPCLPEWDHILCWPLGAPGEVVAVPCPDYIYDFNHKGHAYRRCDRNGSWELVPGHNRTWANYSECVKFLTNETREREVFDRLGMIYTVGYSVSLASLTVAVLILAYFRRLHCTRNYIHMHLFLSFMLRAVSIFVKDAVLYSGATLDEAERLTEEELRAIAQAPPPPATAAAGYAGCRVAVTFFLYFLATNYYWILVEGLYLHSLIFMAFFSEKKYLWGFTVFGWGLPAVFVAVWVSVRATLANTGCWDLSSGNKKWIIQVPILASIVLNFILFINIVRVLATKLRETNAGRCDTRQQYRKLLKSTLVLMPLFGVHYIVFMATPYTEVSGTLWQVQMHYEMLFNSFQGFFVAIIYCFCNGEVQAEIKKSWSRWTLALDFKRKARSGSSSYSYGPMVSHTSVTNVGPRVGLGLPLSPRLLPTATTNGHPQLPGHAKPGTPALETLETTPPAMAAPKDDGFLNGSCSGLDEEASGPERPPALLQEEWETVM
# How it was run: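 Selectivity came from luciferase transcriptional reporter assays expressing human PTH-2 receptor. PTH-1 agonism used transiently transfected HEK-293 cells carrying SV40-promoter receptor and cAMP-responsive-element luciferase; 4-5 h compound exposure, lysis, luminescence, non-linear-regression EC50/efficacy; ≥3 independent runs, PTH (1-34) control each.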
SMILES,"EC50 (human PTH-2 receptor; Table 4 comparison data, luciferase reporter gene assay, read-out: hPTHR-2 EC50) [nM]","EC50 (human PTH-1 receptor; Table 4 comparison data, HEK-293 cells, CRE-luciferase, read-out: hPTHR-1 EC50) [nM]",Selectivity hPTHR-2/hPTHR-1 (human PTH-1 receptor; Table 4 comparison data),EC50 (human PTH-2 receptor) [nM],EC50 (human PTH-1 receptor) [nM],hPTHR-2/hPTHR-1 (human PTH-1 receptor)
"CCCC[C@H](NC(=O)CCNC(=O)[C@H](CC(N)=O)NC(=O)[C@H](CC(C)C)NC(=O)[C@H](Cc1c[nH]cn1)NC(=O)[C@H](CCCCN)NC(=O)CNC(=O)[C@H](CC(C)C)NC(=O)[C@H](CC(N)=O)NC(=O)[C@H](Cc1c[nH]cn1)NC(=O)[C@H](CCCC)NC(=O)[C@H](CC(C)C)NC(=O)[C@H](CCC(N)=O)NC(=O)[C@@H](NC(=O)[C@H](CCC(=O)O)NC(=O)[C@H](CO)NC(=O)[C@@H](NC(=O)C(C)(C)N)C(C)C)[C@@H](C)CC)C(=O)N[C@@H](CCC(=O)O)C(=O)N[C@@H](CCCNC(=N)N)C(=O)N[C@H](C(=O)N[C@@H](CCC(=O)O)C(=O)N[C@@H](Cc1cccc2ccccc12)C(=O)N[C@@H](CC(C)C)C(=O)N[C@@H](CCCNC(=N)N)C(=O)N[C@@H](CCCCN)C(=O)N[C@@H](CCCCN)C(=O)N[C@@H](CC(C)C)C(=O)N[C@@H](CCC(N)=O)C(=O)N[C@@H](CC(=O)O)C(=O)N[C@H](C(=O)N[C@@H](Cc1c[nH]cn1)C(=O)N[C@@H](CC(N)=O)C(=O)N[C@@H](Cc1ccccc1)C(N)=O)C(C)C)C(C)C [SEQ ID NO: 55, [Aib^1, Nle^8,18, β-Ala^17,1-Nal^23] hPTH (1-34)-NH2] (H-[Aib]VSEIQL[Nle]HNLGKHLN[βAla][Nle]ERVE[1Nal]LRKKLQDVHNF-NH2)",46,0.22,213,–,–,–
"CCCC[C@H](NC(=O)[C@H](CC(C)C)NC(=O)[C@H](CCC(N)=O)NC(=O)[C@@H](NC(=O)[C@H](CCC(=O)O)NC(=O)[C@H](CO)NC(=O)[C@@H](NC(=O)C(C)(C)N)C(C)C)[C@@H](C)CC)C(=O)N[C@@H](Cc1c[nH]cn1)C(=O)N[C@@H](CC(N)=O)C(=O)N[C@@H](CC(C)C)C(=O)NCC(=O)N[C@@H](CCCCN)C(=O)N[C@@H](Cc1c[nH]cn1)C(=O)N[C@@H](CC(C)C)C(=O)N[C@@H](CC(N)=O)C(=O)N[C@@H](CO)C(=O)N[C@H](CC(=O)N[C@@H](CCC(=O)O)C(=O)N[C@@H](CCCNC(=N)N)C(=O)N[C@H](C(=O)N[C@@H](CCC(=O)O)C(=O)N[C@@H](Cc1cccc2ccccc12)C(=O)N[C@@H](CC(C)C)C(=O)N[C@@H](CCCNC(=N)N)C(=O)N[C@@H](CCCCN)C(=O)N[C@@H](CC(C)C)C(=O)N[C@@H](CC(C)C)C(=O)N[C@@H](CCC(N)=O)C(=O)N[C@@H](CC(=O)O)C(=O)N[C@H](C(N)=O)C(C)C)C(C)C)[C@@H](C)CC [SEQ ID NO: 5, [Aib^1, Nle^8, β-hIle^18,1-Nal^23, Leu^27] hPTH (1-31)-NH2] (H-[Aib]VSEIQL[Nle]HNLGKHLNS[β3hI]ERVE[1Nal]LRKLLQDV-NH2)",–,–,387,18,0.05,387
"CCCC[C@H](NC(=O)CCNC(=O)[C@H](CC(N)=O)NC(=O)[C@H](CC(C)C)NC(=O)[C@H](Cc1c[nH]cn1)NC(=O)[C@H](CCCCN)NC(=O)CNC(=O)[C@H](CC(C)C)NC(=O)[C@H](CC(N)=O)NC(=O)[C@H](Cc1c[nH]cn1)NC(=O)[C@H](CCCC)NC(=O)[C@H](CC(C)C)NC(=O)[C@H](CCC(N)=O)NC(=O)[C@@H](NC(=O)[C@H](CCC(=O)O)NC(=O)[C@H](CO)NC(=O)[C@@H](NC(=O)C(C)(C)N)C(C)C)[C@@H](C)CC)C(=O)N[C@@H](CCC(=O)O)C(=O)N[C@@H](CCCNC(=N)N)C(=O)N[C@H](C(=O)N[C@@H](CCC(=O)O)C(=O)N[C@@H](Cc1cccc2ccccc12)C(=O)N[C@@H](CC(C)C)C(=O)N[C@@H](CCCNC(=N)N)C(=O)N[C@@H](CCCCN)C(=O)N[C@@H](CC(C)C)C(=O)N[C@@H](CC(C)C)C(=O)N[C@@H](CCC(N)=O)C(=O)N[C@@H](CC(=O)O)C(=O)N[C@H](C(=O)N[C@@H](Cc1c[nH]cn1)C(=O)N[C@@H](CC(N)=O)C(=O)N[C@@H](Cc1ccccc1)C(N)=O)C(C)C)C(C)C [SEQ ID NO: 2, [Aib^1, Nle^8,18, β-Ala^17,1-Nal^23, Leu^27] hPTH (1-34)-NH2] (H-[Aib]VSEIQL[Nle]HNLGKHLN[βAla][Nle]ERVE[1Nal]LRKLLQDVHNF-NH2)",–,–,566,31,0.06,566
"CC[C@H](C)[C@H](NC(=O)[C@H](CCC(=O)O)NC(=O)[C@H](CO)NC(=O)[C@@H](NC(=O)[C@@H](N)CO)C(C)C)C(=O)N[C@@H](CCC(N)=O)C(=O)N[C@@H](CC(C)C)C(=O)N[C@@H](CCOC)C(=O)N[C@@H](Cc1c[nH]cn1)C(=O)N[C@@H](CC(N)=O)C(=O)N[C@@H](CC(C)C)C(=O)NCC(=O)N[C@@H](CCCCN)C(=O)N[C@@H](Cc1c[nH]cn1)C(=O)N[C@@H](CC(C)C)C(=O)N[C@@H](CC(N)=O)C(=O)NCCC(=O)N[C@@H](CCOC)C(=O)N[C@@H](CCC(=O)O)C(=O)N[C@@H](CCCNC(=N)N)C(=O)N[C@H](C(=O)N[C@@H](CCC(=O)O)C(=O)N[C@@H](Cc1cccc2ccccc12)C(=O)N[C@@H](CC(C)C)C(=O)N[C@@H](CCCNC(=N)N)C(=O)N[C@@H](CCCCN)C(=O)N[C@@H](CC(C)C)C(=O)N[C@@H](CC(C)C)C(=O)N[C@@H](CCC(N)=O)C(=O)N[C@@H](CC(=O)O)C(=O)N[C@H](C(=O)N[C@@H](Cc1c[nH]cn1)C(=O)N[C@@H](CC(N)=O)C(=O)N[C@@H](Cc1ccccc1)C(N)=O)C(C)C)C(C)C [SEQ ID NO: 17, [hSer(OMe)^8,18, β-Ala^17,1-Nal^23, Leu^27] hPTH(1-34)-NH2] (H-SVSEIQL[hSer](Me)HNLGKHLN[βAla][hSer](Me)ERVE[1Nal]LRKLLQDVHNF-NH2)",–,–,–,> 270,–,>300
"CCCC[C@H](NC(=O)[C@H](CC(C)C)NC(=O)[C@H](CCC(N)=O)NC(=O)[C@@H](NC(=O)[C@H](CCC(=O)O)NC(=O)[C@H](CO)NC(=O)[C@@H](NC(=O)[C@@H](N)CO)C(C)C)[C@@H](C)CC)C(=O)N[C@@H](Cc1c[nH]cn1)C(=O)N[C@@H](CC(N)=O)C(=O)N[C@@H](CC(C)C)C(=O)NCC(=O)N[C@@H](CCCCN)C(=O)N[C@@H](Cc1c[nH]cn1)C(=O)N[C@@H](CC(C)C)C(=O)N[C@@H](CC(N)=O)C(=O)N[C@@H](CO)C(=O)N[C@H](CC(=O)N[C@@H](CCC(=O)O)C(=O)N[C@@H](CCCNC(=N)N)C(=O)N[C@H](C(=O)N[C@@H](CCC(=O)O)C(=O)N[C@@H](Cc1cccc2ccccc12)C(=O)N[C@@H](CC(C)C)C(=O)N[C@@H](CCCNC(=N)N)C(=O)N[C@@H](CCCCN)C(=O)N[C@@H](CC(C)C)C(=O)N[C@@H](CC(C)C)C(=O)N[C@@H](CCC(N)=O)C(=O)N[C@@H](CC(=O)O)C(=O)N[C@H](C(=O)N[C@@H](Cc1c[nH]cn1)C(=O)N[C@@H](CC(N)=O)C(=O)N[C@@H](Cc1ccccc1)C(N)=O)C(C)C)C(C)C)[C@@H](C)CC [SEQ ID NO: 19, [Nle^8, β-hIle^18,1-Nal^23, Leu^27] hPTH (1-34)-NH2] (H-SVSEIQL[Nle]HNLGKHLNS[β3hI]ERVE[1Nal]LRKLLQDVHNF-NH2)",–,–,224,32,0.14,224
"CCCC[C@H](NC(=O)[C@H](CC(C)C)NC(=O)[C@H](CCC(N)=O)NC(=O)[C@@H](NC(=O)[C@H](CCC(=O)O)NC(=O)[C@H](CO)NC(=O)[C@@H](NC(=O)[C@@H](N)CO)C(C)C)[C@@H](C)CC)C(=O)N[C@@H](Cc1c[nH]cn1)C(=O)N[C@@H](CO)C(=O)N[C@@H](CC(C)C)C(=O)NCC(=O)N[C@@H](CCCCN)C(=O)N[C@@H](Cc1c[nH]cn1)C(=O)N[C@@H](CC(C)C)C(=O)N[C@@H](CC(N)=O)C(=O)N[C@@H](CO)C(=O)N[C@H](CC(=O)N[C@@H](CCC(=O)O)C(=O)N[C@@H](CCCNC(=N)N)C(=O)N[C@H](C(=O)N[C@@H](CCC(=O)O)C(=O)N[C@@H](Cc1cccc2ccccc12)C(=O)N[C@@H](CC(C)C)C(=O)N[C@@H](CCCNC(=N)N)C(=O)N[C@@H](CCCCN)C(=O)N[C@@H](CC(C)C)C(=O)N[C@@H](CC(C)C)C(=O)N[C@@H](CCC(N)=O)C(=O)N[C@@H](CC(=O)O)C(=O)N[C@H](C(=O)N[C@@H](Cc1c[nH]cn1)C(=O)N[C@@H](CC(N)=O)C(=O)N[C@@H](Cc1ccccc1)C(N)=O)C(C)C)C(C)C)[C@@H](C)CC [SEQ ID NO: 23, [Nle^8, Ser^10, β-hIle^18,1-Nal^23, Leu^27] hPTH (1-34)-NH2] (H-SVSEIQL[Nle]HSLGKHLNS[β3hI]ERVE[1Nal]LRKLLQDVHNF-NH2)",–,–,–,17,0.18,95

# Source: patent US20110195900A1, “PEPTIDIC PTH RECEPTOR AGONISTS” (FERRING B.V., priority 2008, published 2011)
